Format in all cases: in vivo
Assay [1] has as its system corn (Beck's hybrid 5828 YH). Description: Soil drench of corn seedlings under drought, growth during V2-V3 transition. To be noted: for % Δ in Plant Height Compared to Control: 11 DAP to 14 DAP, vs water-only control; for change in plant height during V2 to V3 transition compared to water-only control: soil drench at planting and day 3, 11 to 14 days after planting; for Plant Growth during the transition of V2-V3 stage (11 DAP to 14 DAP): soil drench, each component 438.5 mL/hectare, droughted conditions. From the text: The anti-respirant also functioned as an infiltration surfactant (above-soil surfactant or penetrant) and the anti-desiccant functioned as a humectant. […] A combined treatment with betaine-HCl (osmoprotectant), an infiltration surfactant (anti-respirant) and a humectant (anti-desiccant) was also compared with other drench treatments and a water-only control. Glycerol, a polyol compound that has three hydroxyl groups that are responsible for its solubility in water and its hydroscopic nature, was selected as a viscous humectant to combine with the betaine-HCl osmoprotectant and the infiltration surfactant. This triple treatment combination was selected based on its mode of action properties in soil drench applications that promote the retention and management of moisture by attracting moisture and condensing it for contact to the germinating seed and/or growing plant. The treatment combination was provided as a soil drench at the time of planting and again at emergence to promote rapid growth at the early V stages of development, enhance early vigor, provide for a robust stand establishment, and protect against the effects of drought during early seedling establishment. The betaine-HCl osmoprotectant was provided at a final application concentration of 83.49 mM. The infiltration surfactant was diluted in water at the recommended application use rate using a ratio of 1:1600 (surfactant to water) (52.9 μM). The humectant was provided at a final application treatment of 1% diluted in water (136.8 mM). The individual and combined treatments were provided using the application use rates (Fl. oz/Ac) as specified in Tables 54 and 55. […] In Table 55, the application use rates for all three components were the same. […] Seeds were planted at a depth of 2.54 cm, with two seeds per pot. After planting, seeds were supplied with 50 mL of the each of the treatments (as described in Tables 54 and 55) at room temperature and added to the soil in each pot as a soil drench provided at an equivalent application use rate as specified. […] After application of the second drench, the plants were left un-watered to induce and simulate droughted conditions that may occur during early seedling establishment. […] At 11 days after planting, plant height was determined for each plant in the various treatments. Corn plants provided with treatments as described in Table 55 received an additional 50 mL of water at 11 days after planting.

The subject of a further assay is soybean (Asgrow AG4034). Kind of assay: R2 soybean yield, trehalose, potassium acetate and SILWET L-77. Particulars: for Avg. Yield (Bu/Ac): foliar at R2 soybean AG4034, three locations; for Avg. Δ in Yield (Bu/Ac): vs base seed treatment control. From the text:
In another experiment, large acre yield replicated trials of soybean (variety: Asgrow AG4034) were planted from seed treated with a base seed treatment package containing […]® fungicide and PONCHO®/VOTIVO® 500 in three locations in the US Midwest (IL). […] Trehalose is a non-reducing carbohydrate resistant to acid hydrolysis and stable in solution under high temperatures and acidic conditions. Trehalose was applied separately and in combination with a non-blended organosilicone surfactant ([…]-77) as a foliar spray application to soybean plants. Final concentrations at application were as follows: […]

Assay [2] concerns corn (Beck's hybrid 5828 YH). Kind of assay: Corn growth rate under droughted conditions, alternative osmoprotectants. To be noted: two weeks un-watered; Anti-Respirant Control A 29.0%. From the text:
Stachydrine was selected as an osmoprotectant that acts as a negative control due to its functional role in the induction of nodulation (Phillips, D. A., Joseph, C. M., Maxwell, C. A., “Trigonelle and stachydrine released from alfalfa seeds activate NodD2 protein in Rhizobium meliloti” (1992) Plant Physiology 99: 1526-1531). Stachydrine acts through a different mode of action as compared to the betaine-HCl osmoprotectant. Plant growth rates under droughted conditions were compared in corn treated with foliar applications comprising betaine-HCl, strachydrine or myo-inositol (see Table 37). Corn (Beck's hybrid 5828 YH) plants were planted in an environmentally controlled growth facility and grown using the conditions described in the first paragraph of this example. At 1.5 weeks, the plants were provided with another 50 mL of water per pot and plant height was measured for each plant. Plants were then segregated to prevent any cross contamination between the foliar treatments. […] Relative percent growth rate under droughted conditions was calculated for each plant in each treatment replicate using the percent (%) growth rate equation (as provided above in this Example). […]

In assay [3] the test system is corn (DKC 58-89, DKC 52-61, DKC 65-81). Description: V5 corn yield, choline chloride, calcium chloride and PLURONIC F-68. To be noted: for Avg. Yield (Bu/Ac) Trial 1 / Avg. Yield (Bu/Ac) Trial 2: foliar at V5 corn; for Avg. Yield (Bu/Ac) Trial 1: three hybrids (* two hybrids only), trial 1, one location; for Avg. Yield (Bu/Ac) Trial 2: three hybrids; for Avg. Δ in Yield (Bu/Ac): vs base seed treatment control, average of trials 1 and 2; for yield increase compared to base seed treatment control plants: foliar at V5. As for the experimental part: In a separate experiment, large acre field trials were conducted using one and two location trials in the US Midwest (IL) planted with three different corn hybrids (DEKALB: DKC 58-89; DKC 52-61; DKC 65-81). Seed from each of the corn hybrids was coated with a seed treatment of EVERGOL® fungicide combined with PONCHO®/VOTIVO® 500. Foliar treatments comprising a non-ionic polyoxyethylene-polyoxypropylene block copolymer surfactant (PLURONIC F-68, an anti-respirant), a quaternary ammonium salt (choline chloride) and/or a di-hydrated salt (calcium chloride) were applied to corn plants at the V5 stage of development. The foliar treatments were applied using the final concentrations and application use rates as described in Table 42. Choline chloride was selected for its osmolyte-like properties. Choline chloride is a precursor of acetylcholine and is involved in the regulation of water resorption in plants. Choline chloride was tested as a foliar application treatment individually and in combination an anti-respirant (PLURONIC F 68 surfactant). Average yield in Bu/Ac was reported for two trials. Trial 1 was conducted at one location and trial 2 was conducted at two locations in the US Midwest (IL). Yield (Bu/Ac) is reported as the average yield across location(s) and as the average for all three hybrids except where indicated in Table 42 and as the average change in yield (Bu/Ac) compared to the yield from the seed treatment control plants. The Base Seed Treatment control plants received only the EVERGOL® fungicide+PONCHO®/VOTIVO® 500 seed treatment and not any foliar treatments.

Where a name gives a salt, the structure may show the parent alone.

As for `C[N+](C)(C)CC(=O)O` [osmoprotectant-only control, betaine-HCl], in assay [1], the “% Δ in Plant Height Compared to Control” value is “+8%”, the “change in plant height during V2 to V3 transition compared to water-only control” value is recorded as “+8%” and the “Plant Growth during the transition of V2-V3 stage (11 DAP to 14 DAP)” value was 3.11 cm.

On to `OC[C@H]1O[C@H](O[C@H]2O[C@H](CO)[C@@H](O)[C@H](O)[C@H]2O)[C@H](O)[C@@H](O)[C@@H]1O` [trehalose], for which, in the assay on soybean (Asgrow AG4034) (R2, trehalose 6.4 Fl. oz/Ac, SILWET L-77 3.2 Fl. oz/Ac, three locations), the “average change in soybean yield compared to seed treatment-only control” value is reported as “+1.49 Bu/Ac”. Further, the “Avg. Yield (Bu/Ac)” value in the assay with soybean (Asgrow AG4034) worked out at 68.3 Bu/Ac. Besides, the “Avg. Δ in Yield (Bu/Ac)” value with soybean (Asgrow AG4034) (three locations) was “+1.49 Bu/Ac”.

For `O[C@H]1[C@H](O)[C@@H](O)[C@H](O)[C@@H](O)[C@H]1O` [Myo-inositol, myo-inositol], the “Relative Growth Rate (%) under Droughted Conditions” value in assay [2] is 31.1%.

On to `CC(=O)[O-].[K+]` [Potassium Acetate], for which the “Avg. Yield (Bu/Ac)” value in the assay on soybean (Asgrow AG4034) is on record as 67.2 Bu/Ac. Further, the “Avg. Δ in Yield (Bu/Ac)” value in the assay with soybean (Asgrow AG4034) (three locations) was “+0.35 Bu/Ac”.

Consider `O.O.[Ca+2].[Cl-].[Cl-]` [Calcium Chloride (dihydrate)], for which, in assay [3], the “Avg. Yield (Bu/Ac) Trial 1” value was found to be 201.4 Bu/Ac, the “Avg. Yield (Bu/Ac) Trial 2” value was found to be 169.6 Bu/Ac and the “Avg. Δ in Yield (Bu/Ac)” value is reported as “+11.8 Bu/Ac”.

With `OCC(O)CO` [humectant-only control, glycerol], in assay [1], the “% Δ in Plant Height Compared to Control” value was “+3%”, the “change in plant height during V2 to V3 transition compared to water-only control” value was “+3%” and the “Plant Growth during the transition of V2-V3 stage (11 DAP to 14 DAP)” value is recorded as 2.98 cm.

With `[Ca+2].[Cl-].[Cl-]` [calcium chloride], the “yield increase compared to base seed treatment control plants” value in assay [3] is “+11.8 Bu/Ac”.

With `C[N+](C)(C)CCO.[Cl-]` [choline chloride], in assay [3], the “yield increase compared to base seed treatment control plants” value is “+8.5 Bu/Ac”, the “Avg. Yield (Bu/Ac) Trial 1” value is given as 207.3* Bu/Ac, the “Avg. Yield (Bu/Ac) Trial 2” value amounted to 157.2 Bu/Ac and the “Avg. Δ in Yield (Bu/Ac)” value is “+8.5 Bu/Ac”.
